Assay results published in US20230041859A1, “USE OF TERPENOIDS IN THE TREATMENT OR PREVENTION OF FIBROTIC DISEASES” (Arjil Biotech Holding Company Limited, priority 2021, published 2023).

Legend:
[1] = tested on: NO, TNF-α, IL-1β, and IL-6; assay: Cisplatin-induced renal injury: pro-inflammatory cytokines in serum (ELISA); format: in vivo, mice; conditions: compound, dose not given
Method: TNF-α, IL-6, and IL-1β cytokines in serum The serum concentration of the pro-inflammatory cytokines (i.e. tumor necrosis factor-α (TNF-α), interleukin-6 (IL-6), and IL-1β) in serum are assessed with relevant enzyme-linked immunosorbent assay (ELISA) kits (Biosource International Inc., Sunnyvale, Calif., USA), based on the manufacturer's instructions.
(§1) Seven-to-eight-week-old male C57BL/6 mice are obtained from the BioLASCO Taiwan Co., Ltd. (Taipei, Taiwan). The animals are housed in Plexiglas cages at a constant temperature of 22±1° C. and a relative humidity of 55±5% on a 12 h dark-light cycle for at least 2 weeks before the experiment. Animals are provided food and water ad libitum. All experimental procedures are performed according to the guidelines of the Institutional Animal Ethics Committee, and the protocol is approved by the Committee for the Purpose of Control and Supervision of Experiments on Animals.
(§2) Renal fibrosis is induced via multiple injections of low-dose cisplatin. Intraperitoneal injections of cisplatin (5 mg/kg/injection; P4394, Sigma-Aldrich, St Louis, Mo.) are performed at 0, 1, and 3 weeks, for a total of 3 injections. Mice are sacrificed at 6 weeks after the first dose of cisplatin (n=6). […]

[2] = tested on: Con A-induced acute hepatitis; assay: Con A (concanavalin A) induced acute hepatitis in BALB/c mice; format: in vivo; conditions: 24 h after Con A; mean±SEM; vehicle 1.4±0.2
Description: Intravenous injection of concanavalin A (Con A) is a widely used strategy to study T cell mediated hepatitis. Con A is a lectin that can activate CD4^+ T cells, produce cytokines, and lead to liver cell damage. Dexamethasone (Dex) is a long acting synthetic corticosteroid, and has been used as anti-inflammatory and immunosuppressive medication.
Male BALB/c mice (7-9 weeks old) were purchased from BioLASCO Taiwan Co., Ltd or National Laboratory Animal Center (NLAC, Taiwan). Animals are housed five per cage with food and water provided ad libitum throughout the experiments. Room temperature is maintained at 23±2° C. with an alternating 12 h light dark cycle. Animals are acclimatized for one week to minimize the effect of stress before the experiments. All experimental protocols involving animals and their care are approved by the Institutional Animal Care and Use Committee (IACUC) in ITRI (ITRI-IACUC-2018-041 and ITRI-IACUC-2018-050; accredited by AAALAC) and are carried out according to the regulations of the Council of Agriculture, Taiwan. […]
To assess the level of hepatocellular injury after Con A treatment, serum GPT and GOT levels are measured by Fuji Dri-Chem slides (Fuji, Japan). […] Cytokine levels are measured by ProcartaPlex™ immunoassays kit according to manufacturer's instructions. […]

[3] = tested on: cisplatin-induced renal injury; assay: Mice model of cisplatin-induced renal injury: serum creatinine (CRE) and BUN; format: in vivo; conditions: compounds, dose not given, daily for 7 days; p<0.001 vs cisplatin group
Method: Determination of biochemical parameters Serum creatinine and serum urea are assessed using colorimetric kits according to manufacturer's instructions. Kits of the former markers are purchased from (HUMAN Diagnostics Worldwide, Magdeburg, Germany) with a chemical analyzer (Roche Diagnostics, Cobas Mira Plus, Rotkreuz, Switzerland).
as §1
as §2, with “(n=6). To analyze the effects of samples, mice are given daily intraperitoneal injections for 7 days, starting from 4 weeks after first dose of cisplatin, and sacrificed at […] (n=6).” for “(n=6).”

HepG2 cells = assay: Oleic acid-induced steatosis in HepG2 cells (Oil Red O); format: cell-based, human; conditions: 6 h pre-treatment, then 0.5 mM OA for 24 h, OD 510 nm, at noncytotoxic concentration
Method: Oleic acid (OA) induced steatosis in HepG2 cells and may consider an in vitro model for human fatty liver disease. HepG2 cells were treated with different concentrations of oleic acid (OA) to induce steatosis. Intracellular lipid was stained by Oil Red O (ORO), and quantified by colorimetric assay. 0.5 mM OA was chosen for further studies (FIGS. 37 and 38). HepG2 cells were treated with test compounds ([…]) and incubated for 48 h (FIG. 39). HepG2 cells were seeded in 24-well plates and deprived from FBS for 24 h. These cells were then treated with different concentrations of test compounds for 6 h before induced with 0.5 mM OA for 24 h. Cells were gently washed with PBS and fixed using paraformaldehyde at RT, then stained with Oil Red (ORO) solution for 30 min at RT. ORO stain was extracted using pure isopropanol and the optical density was detected at 510 nm (FIG. 40).

[4] = tested on: CCl4-induced chronic liver fibrosis; assay: CCl4-induced chronic liver fibrosis in rat; conditions: in vivo
Method: Blood samples are collected at week 0, 2, 4, 6, and 8. The animals are sacrificed at the end of the 8-week for histopathological examinations. FIGS. 7A, 7B, 7C depict delta weight, liver weight, and liver/body-weight ratio, respectively.
The level of clinical biochemistry such as aspartate aminotransferase (AST), alanine aminotransferase (ALT), is evaluated to determine the enzymatic activities of the livers of the control groups and the experimental groups (shown in FIGS. 8A-8C).

[5] = tested on: cisplatin-induced renal injury; assay: Cisplatin-induced renal injury: kidney histopathology (H&E); format: in vivo, mice; conditions: compound, dose not given
Description: Kidney histopathology The anterior portion of the left lateral liver lobe from each mouse is fixed in 10% formaldehyde phosphate buffer, embedded in paraffin, cut into 5 μm sections, and then treated with an hematoxylin and eosin (H&E) stain for histological examination under the light microscopy (Nikon, ECLIPSE, TS100, Tokyo, Japan). Images are captured with a digital camera (NIS-Elements D 2.30, SP4, Build 387) at an original magnification of 400×.
as §1
Renal fibrosis is induced via multiple injections of low-dose cisplatin. […]
The histopathological changes are analyzed to determine whether Antrodia camphorata extract and compounds affected renal failure in cisplatin-stimulated mice. […]

[6] = tested on: bleomycin-induced pulmonary fibrosis; assay: Bleomycin-induced pulmonary fibrosis in mice: body weight, lung weight, lung index; format: in vivo; conditions: for Pulmonary index: lung weight/body weight×100
Method: Specific pathogen-free ICR mice (males) (body weights 18-22 g) were purchased from the BioLASCO Taiwan Co., Ltd. (Taipei, Taiwan). The animals were housed in Plexiglas cages at a constant temperature of 22±1° C. and a relative humidity of 55±5% on a 12 h dark-light cycle for at least 2 weeks before the experiment. Animals were provided food and water ad libitum. All experimental procedures were performed according to the guidelines of the Institutional Animal Ethics Committee, and the protocol was approved by the Committee for the Purpose of Control and Supervision of Experiments on Animals.
Mice were divided into fifth groups with 5 animals per group according to body weight: control group, BLM group, BLM+DEX group (7.5 mg/kg), BLM+ACH dosage group (50 mg/kg), and BLM+ACM dosage group (25 mg/kg), BLM+ACH dosage group (50 mg/kg), and BLM+ACM dosage group (25 mg/kg) BLM+AH dosage group (50 mg/kg), and BLM+AM dosage group (25 mg/kg) BLM+BH dosage group (50 mg/kg), and BLM+BM dosage group (25 mg/kg) BLM+CH dosage group (50 mg/kg), and BLM+CM dosage group (25 mg/kg) BLM+DH dosage group (50 mg/kg), and BLM+DM dosage group (25 mg/kg) BLM+EH dosage group (50 mg/kg), and BLM+EM dosage group (25 mg/kg) BLM. Pulmonary fibrosis (PF) was established in mice via a single intratracheal administration of BLM at 7.5 mg/kg mg/kg body weight. Different doses of samples were intragastrically administered daily for 21 days after BLM injury, and DEX was used as the positive control. Control and model groups received an equal volume of vehicle (0.9% NaCl) using the same schedule and route of administration.
Mouse body weights were recorded daily. Mice were sacrificed on the 21th day using excess chloral hydrate hydrochloride anesthesia. Blood was obtained for ELISA analyses, and whole lungs were removed and weighed. The right lungs were fixed in 10% formalin, dehydrated, and embedded in paraffin. The left lungs were used to determine hydroxyproline. The pulmonary coefficient was calculated using the following equation: lung weight/body weight×100% […]
At the end point of the entire experiment, the animal's body weight and lung weight were recorded.

[7] = 25 mg/kg intragastric daily for 21 days after BLM
[8] = 50 mg/kg intragastric daily for 21 days after BLM

C=C1C(=O)O[C@H]2/C=C(\C)CC3C=C(CC/C=C(\C)CC[C@H]12)C(=O)O3 (some centres unmarked) [AR100-DS1, Ovatodiolide]
NO, TNF-α, IL-1β, and IL-6 production after cisplatin challenge [1]: improved
liver necrosis histopathological score (0 to 4) [2]: 0.2±0.2
renal protection effect (normalization of serum CRE and BUN) [3]: significant renal protection effect
OA-induced steatosis in HepG2 cells (HepG2 cells): inhibition
CCl4-induced liver injury, overall [4]: potential to partially repair
necrosis and inflammatory infiltrating cells in the kidney tissue [5]: significantly improved

C=C(CC[C@@H](C(=O)O)[C@H]1CC[C@@]2(C)C3=CC[C@H]4C(C)(C)[C@@H](O)CC[C@]4(C)C3=CC[C@]12C)C(C)C [AR101-DS4, Dehydroeburicoic Acid]
Final body mass [6, 7]: 36.44 ± 0.28 g
Pulmonary mass [6, 7]: 0.52 ± 0.01 g
Pulmonary index [6, 7]: 1.54 ± 0.04
Final body mass [6, 8]: 37.47 ± 0.22 g
Pulmonary mass [6, 8]: 0.49 ± 0.01 g
Pulmonary index [6, 8]: 1.31 ± 0.01
renal protection effect (normalization of serum CRE and BUN) [3]: significant renal protection effect
OA-induced steatosis in HepG2 cells (HepG2 cells): inhibition
